{"source": "ChEMBL document CHEMBL5620379", "about": "“Discovery, SAR and mechanistic studies of quinazolinone-based acetamide derivatives in experimental visceral leishmaniasis” (Eur J Med Chem, 2023)", "key": {"J774 [1]": {"test_system": "J774", "experiment": "Cytotoxicity against mouse J774 cells at 25 uM incubated for 72 hrs by MTT assay relative to control", "assay_type": "toxicity, cell-based", "conditions": "j774, 72 h"}, "Leishmania donovani [2]": {"test_system": "Leishmania donovani", "experiment": "Antileishmanial activity against Leishmania donovani amastigotes infected in J774 macrophage assessed as inhibition of parasite growth at 25 uM incubated for 48 hrs by luciferase assay relative to control", "assay_type": "functional", "set-up": "scale not given: the % may be the effect or the level left"}, "[3]": {"experiment": "Stability of the compound in stimulated intestinal fluid at 10 ug/ml at pH 6.8 measured after 120 min by HPLC analysis", "assay_type": "ADME", "conditions": "simulated intestinal fluid, at 10 µg/mL, read-out: Stability"}, "Leishmania donovani [4]": {"test_system": "Leishmania donovani", "experiment": "Antileishmanial activity against amastigote form of Leishmania donovani infected in BALB/c mouse assessed as inhibition of parasite growth in liver at 10 mg/kg, po measured after 1 week post treatment by geimsa staining based analysis relative to control", "assay_type": "functional", "set-up": "scale not given: the % may be the effect or the level left", "conditions": "time 1 weeks"}, "Leishmania donovani [5]": {"test_system": "Leishmania donovani", "experiment": "Antileishmanial activity against amastigote form of Leishmania donovani infected in BALB/c mouse assessed as inhibition of parasite growth in liver at 20 mg/kg, po measured after 1 week post treatment by geimsa staining based analysis relative to control", "assay_type": "functional", "set-up": "scale not given: the % may be the effect or the level left", "conditions": "time 1 weeks"}, "[6]": {"experiment": "Toxicity in BALB/c mouse assessed as effect on body weight at 10 to 40 mg/kg, po measured after 1 week", "assay_type": "organism-based", "conditions": "in vivo, 168 h, dose 10-40 mg/kg, time 1 weeks"}, "[7]": {"experiment": "Toxicity in BALB/c mouse assessed as effect on skin texture at 10 to 40 mg/kg, po measured after 1 week", "assay_type": "organism-based", "conditions": "in vivo, 168 h, dose 10-40 mg/kg, time 1 weeks"}, "Splenocyte [8]": {"test_system": "Splenocyte", "experiment": "Immunostimulatory activity in mouse splenocyte assessed as fold increase in IL-12 synthesis at 10 to 40 mg/kg measured after 1 week by RT-PCR analysis", "assay_type": "functional", "conditions": "dose 10-40 mg/kg; time 1 weeks"}, "Splenocyte [9]": {"test_system": "Splenocyte", "experiment": "Immunostimulatory activity in mouse splenocyte assessed as decrease in IL-10 secretion at 10 to 40 mg/kg measured after 1 week by RT-PCR analysis relative to control", "assay_type": "functional", "set-up": "scale not given: the % may be the effect or the level left", "conditions": "dose 10-40 mg/kg, time 1 weeks"}, "Leishmania donovani [10]": {"test_system": "Leishmania donovani", "experiment": "Antileishmanial activity against Leishmania donovani infected in golden hamster assessed as inhibition of parasite growth in liver at 80 mg/kg, po administered for 7 days and measured after 28 days by giemsa staining based analysis relative to control", "assay_type": "functional", "set-up": "scale not given: the % may be the effect or the level left", "conditions": "time 28 day"}, "[11]": {"experiment": "Toxicity in golden hamster infected with Leishmania donovani assessed as reduction in serum ALT level at 40 mg/kg ,po and measured after 28 days post infection (reference value: 81.58 IU/L)", "assay_type": "organism-based, Mesocricetus auratus", "conditions": "in vivo, 672 h, time 28 day"}, "J774 [12]": {"test_system": "J774", "experiment": "Immunostimulatory activity in mouse J774 macrophage infected with Leishmania donovani assessed as decrease in IL-10 level at 25 uM measured after 24 hrs by RT-PCR analysis relative to control", "assay_type": "functional", "set-up": "scale not given: the % may be the effect or the level left"}, "J774 [13]": {"test_system": "J774", "experiment": "Immunostimulatory activity in mouse J774 macrophage infected with Leishmania donovani promastigotes assessed as fold increase in iNOS mRNA expression at 25 uM measured after 48 hrs in presence of nitric oxide by spectrophotometer analysis", "assay_type": "functional"}, "J774 [14]": {"test_system": "J774", "experiment": "Downregulation of Akt phosphorylation in mouse J774 macrophage infected with Leishmania donovani at 25 uM measured after 4 to 8 hrs by immunoblot analysis", "assay_type": "functional, cell-based", "conditions": "time 4-8 hrs"}, "Leishmania donovani [15]": {"test_system": "Leishmania donovani", "experiment": "Induction of cell cycle arrest in Leishmania donovani promastigotes assessed as accumulation of cells at G1 phase at 25 uM measured after 24 hrs by PI staining based flow cytometry analysis (reference value: 35.7%)", "assay_type": "functional"}, "Leishmania donovani [16]": {"test_system": "Leishmania donovani", "experiment": "Induction of cell cycle arrest in Leishmania donovani promastigotes assessed as accumulation of cells at S phase at 25 uM measured after 8 hrs by PI staining based flow cytometry analysis (reference value: 28.6%)", "assay_type": "functional"}, "Leishmania donovani [17]": {"test_system": "Leishmania donovani", "experiment": "Induction of cell cycle arrest in Leishmania donovani promastigotes assessed as accumulation of cells at G2/M phase at 25 uM measured after 8 hrs by PI staining based flow cytometry analysis (reference value: 35.7%)", "assay_type": "functional"}, "Leishmania donovani [18]": {"test_system": "Leishmania donovani", "experiment": "Induction of cell cycle arrest in Leishmania donovani promastigotes assessed as accumulation of cells at G2/M phase at 25 uM measured after 12 hrs by PI staining based flow cytometry analysis (reference value: 35.7%)", "assay_type": "functional"}, "Leishmania donovani [19]": {"test_system": "Leishmania donovani", "experiment": "Induction of autophagy in Leishmania donovani promastigotes assessed as increase in number of MDC-positive parasite by measuring MDC-labelled vacuoles at 25 uM measured after 24 hrs by MDC staining based analysis", "assay_type": "functional, organism-based"}, "Leishmania donovani [20]": {"test_system": "Leishmania donovani", "experiment": "Induction of autophagy in Leishmania donovani promastigotes assessed as appearance of lipid droplets in cytoplasm at 25 uM measured after 24 hrs by Nile red staining based fluorescence microscopic analysis", "assay_type": "functional, organism-based"}, "Leishmania donovani [21]": {"test_system": "Leishmania donovani", "experiment": "Antileishmanial activity against Leishmania donovani promastigotes at 25 uM measured after 12 hrs by luciferase assay relative to control", "assay_type": "functional"}, "Leishmania donovani [22]": {"test_system": "Leishmania donovani", "experiment": "Induction of autophagy in Leishmania donovani promastigotes assessed as fold induction of ATG12 gene at 25 uM measured after 24 hrs by RT-PCR analysis", "assay_type": "functional"}, "Leishmania donovani [23]": {"test_system": "Leishmania donovani", "experiment": "Induction of autophagy in Leishmania donovani promastigotes assessed as fold increase in Sir2 transcript level at 25 uM measured after 24 hrs by RT-PCR analysis", "assay_type": "functional"}, "Leishmania donovani [24]": {"test_system": "Leishmania donovani", "experiment": "Induction of apoptosis in Leishmania donovani promastigotes assessed as late phase apoptosis at 25 uM measured after 48 hrs by DNA laddering assay", "assay_type": "functional, organism-based"}, "Leishmania donovani [25]": {"test_system": "Leishmania donovani", "experiment": "Induction of apoptosis in Leishmania donovani promastigotes assessed as appearance of intense swelling in mitochondria at 25 uM by transmission electron microscopy analysis", "assay_type": "functional, organism-based"}}, "note": "Active and inactive are the calls of the source. The rule behind the calls is not given here."}
{"smiles": "Cn1c(-c2ccc(OCC(=O)Nc3ccccn3)cc2)nc2ccccc2c1=O", "values": [{"measurement": "Activity", "setting": "J774 [1]", "value": 79.57, "unit": "%"}, {"measurement": "Activity", "setting": "Leishmania donovani [2]", "value": 82.68, "unit": "%"}, {"measurement": "remaining at 2 h, 10 ug/ml", "setting": "[3]", "value": 97.5, "unit": "%"}, {"measurement": "Activity", "setting": "Leishmania donovani [4]", "value": ">50", "unit": "%"}, {"measurement": "Activity", "setting": "Leishmania donovani [5]", "value": ">50", "unit": "%"}, {"measurement": "Activity", "setting": "[6]", "value": "Non-Toxic"}, {"measurement": "Activity", "setting": "[7]", "value": "Non-Toxic"}, {"measurement": "fold change (FC)", "setting": "Splenocyte [8]", "value": 4.96}, {"measurement": "Activity", "setting": "Splenocyte [9]", "value": 47.69, "unit": "%"}, {"measurement": "Activity", "setting": "Leishmania donovani [10]", "value": 86.5, "unit": "%"}, {"measurement": "Activity", "setting": "[11]", "value": 101.88, "unit": "IU/L"}, {"measurement": "Activity", "setting": "J774 [12]", "value": 72.23, "unit": "%"}, {"measurement": "fold change (FC)", "setting": "J774 [13]", "value": 4.87}, {"measurement": "Activity", "setting": "J774 [14]", "value": "Active"}, {"measurement": "Activity", "setting": "Leishmania donovani [15]", "value": 72.2, "unit": "%"}, {"measurement": "Activity", "setting": "Leishmania donovani [16]", "value": 20.7, "unit": "%"}, {"measurement": "Activity", "setting": "Leishmania donovani [17]", "value": 23.8, "unit": "%"}, {"measurement": "Activity", "setting": "Leishmania donovani [18]", "value": 18.7, "unit": "%"}, {"measurement": "Activity", "setting": "Leishmania donovani [19]", "value": "Active"}, {"measurement": "Activity", "setting": "Leishmania donovani [20]", "value": "Active"}, {"measurement": "Activity", "setting": "Leishmania donovani [21]", "value": 11.8, "unit": "%"}, {"measurement": "fold change (FC)", "setting": "Leishmania donovani [22]", "value": 8.57}, {"measurement": "fold change (FC)", "setting": "Leishmania donovani [23]", "value": 4.95}, {"measurement": "Activity", "setting": "Leishmania donovani [24]", "value": "Active"}, {"measurement": "Activity", "setting": "Leishmania donovani [25]", "value": "Active"}]}
